Experiments:
[1] = test system: E. coli BAA-2452; assay: H33342 bisbenzimide dye uptake assay, E. coli BAA-2452; format: cell-based, Escherichia coli; settings: E. coli BAA-2452, 7×10^8 CFU/mL, non-lethal concentration
Procedure: Overnight culture of E. coli BAA-2452™ and K. pneumoniae BAA-2146™ were used to inoculate fresh CAMHB media for another 5 hr at 35° C. with shaking. Bacterial cells were collected by centrifugation at 6000 rpm for 40 min and resuspended in PBS. The OD600 of the cell suspension was adjusted to about 1.0 and kept at room temperature during the experiment. Aliquots (180 μL/well) of the cell suspension were transferred to a 96-well flat-bottom black plate in the format of column 1, PBS blank; column 2, untreated control cells; column 3, cells+potentiator (sub-lethal concentration). Five technical replicates of each group were conducted. Fluorescent probe Hoechst 33342 bisbenzimide (H33342) was added (20 μL) to each well with a final concentration of 5 μM. Fluorescence was read immediately after the addition of H33342 by a Tecan Infinite M20 plate reader with the excitation and emission filters of 355 and 460 nm for H33342. Fluorescence data were normalized to the emission before cells were added in the PBS control, and they were plotted against time to show the cellular uptake of H33342 over 10 min. Control experiments of dye+600-Da BPEI were unchanged from fluorescence emission values obtained with dye only.

[2] = test system: MRSA OU11; assay: Resazurin cell viability assay, MRSA OU11; format: cell-based, Staphylococcus aureus
Procedure: Cell viability assays with resazurin were performed with MRSA OU11 cells grown in TSB as similar to the procedure of cell-permeation assays until they reach a density of ˜7×10^9 CFU/mL. Then the cell culture was transferred into a 96-well plate (100 μL/well) for BPEI or polymyxin B (PmB) treatments at varied concentrations from 64-512 μg/mL. Controls of untreated and positive control of 5% bleach were also conducted. The plate was incubated at 37° C. overnight. Resazurin (50 μL; final concentration of 50 μg/mL) was then added and, after 1 hour of incubation, the fluorescence intensity was measured (λex=560 nm; λen, =590 nm).

[3] = test system: Gram-negative bacteria; settings: paradigm; cited from earlier work
[4] = test system: Gram-positive bacteria; settings: paradigm; cited from earlier work

## polymyxin B
[1]
  intracellular accumulation of H33342 (fluorescence) vs untreated cells: increases
[2]; MRSA OU11, 64 μg/mL PmB
  cell viability (resazurin): greater cell death than 512 μg/mL 600-Da BPEI
[2]; MRSA OU11, 512 μg/mL PmB
  cell viability (resazurin): complete loss of MRSA OU11 viability
[2]; MRSA OU11, ~7×10^9 CFU/mL, 64-512 μg/mL, overnight
  cell viability (resazurin): more lethal
[3]
  MIC: ≤ 2 µg/mL
[4]
  concentration required (MIC): ≥ 32 µg/mL
